Key:
Type in all cases: ADME, organism-based
[1] = Half life in CD1 mouse at 5 mg/kg, po administered as suspension; parameters: dose 5 mg/kg, route oral; details: in vivo
[2] = Half life in Sprague-Dawley rat at 1 mg/kg, iv; parameters: dose 1 mg/kg, route intravenous; details: in vivo
[3] = system: Mus musculus; experiment: Dose normalized AUC in NCR mouse at 25 mg/kg, po administered as suspension; parameters: dose 25 mg/kg, route oral; details: in vivo
[4] = AUC in NCR mouse at 25 mg/kg, po administered as solution; parameters: dose 25 mg/kg, route oral; details: plasma
[5] = Cmax in Sprague-Dawley rat at 5 mg/kg, po administered as solution; parameters: dose 5 mg/kg, route oral; details: in vivo
[6] = Cmax in CD1 mouse at 5 mg/kg, po administered as suspension; parameters: dose 5 mg/kg, route oral; details: in vivo
[7] = Cmax in NCR mouse at 25 mg/kg, po administered as suspension; parameters: dose 25 mg/kg, route oral; details: in vivo
[8] = Half life in CD1 mouse at 5 mg/kg, po administered as solution; parameters: dose 5 mg/kg, route oral; details: in vivo
[9] = Half life in Sprague-Dawley rat at 5 mg/kg, po administered as solution; parameters: dose 5 mg/kg, route oral; details: in vivo
[10] = Cmax in CD1 mouse at 5 mg/kg, po administered as solution; parameters: dose 5 mg/kg, route oral; details: in vivo
[11] = Half life in NCR mouse at 25 mg/kg, po administered as solution; parameters: dose 25 mg/kg, route oral; details: in vivo
[12] = Clearance in Sprague-Dawley rat at 1 mg/kg, iv; parameters: dose 1 mg/kg, route intravenous; details: in vivo
[13] = Oral bioavailability in Sprague-Dawley rat at 5 mg/kg administered as solution; details: in vivo
[14] = Oral bioavailability in NCR mouse at 25 mg/kg administered as solution; details: in vivo
[15] = system: Rattus norvegicus; experiment: Dose normalized AUC in Sprague-Dawley rat at 5 mg/kg, po administered as solution; parameters: dose 5 mg/kg, route oral; details: in vivo
[16] = AUC in CD1 mouse at 5 mg/kg, po administered as solution; parameters: dose 5 mg/kg, route oral; details: plasma
[17] = Half life in CD1 mouse at 0.5 mg/kg, iv; parameters: dose 0.5 mg/kg, route intravenous; details: in vivo
[18] = Cmax in NCR mouse at 25 mg/kg, po administered as solution; parameters: dose 25 mg/kg, route oral; details: in vivo
[19] = Oral bioavailability in CD1 mouse at 5 mg/kg administered as solution; details: in vivo
[20] = AUC in NCR mouse at 25 mg/kg, po administered as suspension; parameters: dose 25 mg/kg, route oral; details: plasma
[21] = AUC in Sprague-Dawley rat at 5 mg/kg, po administered as solution; parameters: dose 5 mg/kg, route oral; details: plasma
[22] = AUC in CD1 mouse at 5 mg/kg, po administered as suspension; parameters: dose 5 mg/kg, route oral; details: plasma
[23] = system: Mus musculus; experiment: Dose normalized AUC in CD1 mouse at 0.5 mg/kg, iv; parameters: dose 0.5 mg/kg, route intravenous; details: in vivo
[24] = Oral bioavailability in CD1 mouse at 5 mg/kg administered as suspension; details: in vivo
[25] = system: Rattus norvegicus; experiment: Dose normalized AUC in Sprague-Dawley rat at 1 mg/kg, iv; parameters: dose 1 mg/kg, route intravenous; details: in vivo
[26] = system: Mus musculus; experiment: Dose normalized AUC in CD1 mouse at 5 mg/kg, po administered as suspension; parameters: dose 5 mg/kg, route oral; details: in vivo
[27] = Clearance in CD1 mouse at 0.5 mg/kg, iv; parameters: dose 0.5 mg/kg, route intravenous; details: in vivo
[28] = Oral bioavailability in NCR mouse at 25 mg/kg administered as suspension; details: in vivo
[29] = Half life in NCR mouse at 25 mg/kg, po administered as suspension; parameters: dose 25 mg/kg, route oral; details: in vivo
[30] = AUC in Sprague-Dawley rat at 1 mg/kg, iv; parameters: dose 1 mg/kg, route intravenous; details: plasma
[31] = AUC in CD1 mouse at 0.5 mg/kg, iv; parameters: dose 0.5 mg/kg, route intravenous; details: plasma
[32] = system: Mus musculus; experiment: Dose normalized AUC in CD1 mouse at 5 mg/kg, po administered as solution; parameters: dose 5 mg/kg, route oral; details: in vivo
[33] = system: Mus musculus; experiment: Dose normalized AUC in NCR mouse at 25 mg/kg, po administered as solution; parameters: dose 25 mg/kg, route oral; details: in vivo

half-life [1]: 2.9 h | half-life [2]: 1.8 h | AUC/dose [3]: 0.14 kg·h/L | AUC [4]: 8.46 µM·h | Cmax [5]: 930 nM | Cmax [6]: 200 nM | Cmax [7]: 910 nM | half-life [8]: 1.6 h | half-life [9]: 2.3 h | Cmax [10]: 450 nM | half-life [11]: 2.1 h | clearance [12]: 27 mL/min/kg | bioavailability [13]: 62% | bioavailability [14]: 50% | AUC/dose [15]: 0.42 kg·h/L | AUC [16]: 1.85 µM·h | half-life [17]: 5.8 h | Cmax [18]: 2510 nM | bioavailability [19]: 54% | AUC [20]: 9.37 µM·h | AUC [21]: 5.64 µM·h | AUC [22]: 1.72 µM·h | AUC/dose [23]: 0.25 kg·h/L | bioavailability [24]: 50% | AUC/dose [25]: 0.67 kg·h/L | AUC/dose [26]: 0.13 kg·h/L | clearance [27]: 67 mL/min/kg | bioavailability [28]: 55% | half-life [29]: 4 h | AUC [30]: 1.81 µM·h | AUC [31]: 0.34 µM·h | AUC/dose [32]: 0.14 kg·h/L | AUC/dose [33]: 0.13 kg·h/L
SMILES: CN1CCN(c2ccc(-c3cnc4[nH]c5cnc(C#N)cc5c4c3)cc2)CC1
